In the NIST ThermoML archive (doi:10.1016/j.fluid.2018.04.025):

Experiment: xn = mol fraction of the nth substance listed
Settings: 101 kPa, Liquid; for viscosity: Falling or rolling sphere viscometry; for speed of sound: Frequency=3 MHz, Sing-around technique in a fixed-path interferometer; for mass density: Vibrating tube method

CCCC[n+]1ccn(C)c1.O=S(=O)([N-]S(=O)(=O)C(F)(F)F)C(F)(F)F + CCCCO
Settings | mass density [kg/m3] | speed of sound [m/s] | viscosity [mPa·s]
298.15 K, x1 = 0.1041 | 977.145 | 1204.1 | 4.37
298.15 K, x1 = 0.203 | 1088.59 | 1195.1 | 6.8
298.15 K, x1 = 0.3026 | 1170.97 | 1196.1 | 9.05
298.15 K, x1 = 0.409 | 1238.03 | 1200.2 | 11.83
298.15 K, x1 = 0.4987 | 1282.27 | 1204.3 | 14.91
298.15 K, x1 = 0.603 | 1325.15 | 1209.3 | 19.73
298.15 K, x1 = 0.6973 | 1357.81 | 1214.1 | 24.95
298.15 K, x1 = 0.809 | 1390.36 | 1219.2 | 32.11
298.15 K, x1 = 0.9104 | 1415.6 | 1223 | 40.26
298.15 K, x1 = 1 | 1436.02 | 1227.3 | 51.22
303.15 K, x1 = 0.1041 | 972.795 | 1189.7 | 3.85
303.15 K, x1 = 0.203 | 1084 | 1181.7 | 5.85
303.15 K, x1 = 0.3026 | 1166.33 | 1183.4 | 7.68
303.15 K, x1 = 0.409 | 1233.48 | 1188.1 | 9.93
303.15 K, x1 = 0.4987 | 1277.72 | 1192.4 | 12.53
303.15 K, x1 = 0.603 | 1320.71 | 1197.7 | 16.62
303.15 K, x1 = 0.6973 | 1353.3 | 1202.5 | 20.95
303.15 K, x1 = 0.809 | 1385.78 | 1207.8 | 26.73
303.15 K, x1 = 0.9104 | 1411.02 | 1211.9 | 33.01
303.15 K, x1 = 1 | 1431.22 | 1216.3 | 41.91
308.15 K, x1 = 0.1041 | 968.785 | 1175.3 | 3.27
308.15 K, x1 = 0.203 | 1079.65 | 1168.5 | 5.03
308.15 K, x1 = 0.3026 | 1161.89 | 1170.8 | 6.62
308.15 K, x1 = 0.409 | 1228.96 | 1176 | 8.51
308.15 K, x1 = 0.4987 | 1273.42 | 1180.7 | 10.71
308.15 K, x1 = 0.603 | 1316.29 | 1186.2 | 14.13
308.15 K, x1 = 0.6973 | 1348.83 | 1191.2 | 17.82
308.15 K, x1 = 0.809 | 1381.24 | 1196.7 | 22.61
308.15 K, x1 = 0.9104 | 1406.45 | 1200.9 | 27.62
308.15 K, x1 = 1 | 1426.43 | 1205.5 | 34.63
313.15 K, x1 = 0.1041 | 964.582 | 1161 | 2.87
313.15 K, x1 = 0.203 | 1075.17 | 1155.3 | 4.39
313.15 K, x1 = 0.3026 | 1157.28 | 1158.3 | 5.75
313.15 K, x1 = 0.409 | 1224.36 | 1163.9 | 7.36
313.15 K, x1 = 0.4987 | 1268.95 | 1168.9 | 9.24
313.15 K, x1 = 0.603 | 1311.81 | 1174.7 | 12.24
313.15 K, x1 = 0.6973 | 1344.2 | 1180 | 15.31
313.15 K, x1 = 0.809 | 1376.73 | 1185.6 | 19.32
313.15 K, x1 = 0.9104 | 1401.97 | 1189.9 | 23.41
313.15 K, x1 = 1 | 1421.64 | 1194.7 | 28.93
318.15 K, x1 = 0.1041 | 960.208 | 1146.9 | 2.53
318.15 K, x1 = 0.203 | 1070.62 | 1142.3 | 3.86
318.15 K, x1 = 0.3026 | 1152.59 | 1145.8 | 5.04
318.15 K, x1 = 0.409 | 1219.7 | 1151.9 | 6.42
318.15 K, x1 = 0.4987 | 1264.59 | 1157.2 | 8.04
318.15 K, x1 = 0.603 | 1307.37 | 1163.4 | 10.61
318.15 K, x1 = 0.6973 | 1339.66 | 1168.8 | 13.32
318.15 K, x1 = 0.809 | 1372.24 | 1174.6 | 16.64
318.15 K, x1 = 0.9104 | 1397.35 | 1179.1 | 19.93
318.15 K, x1 = 1 | 1416.84 | 1184 | 24.63
323.15 K, x1 = 0.1041 | 955.94 | 1132.9 | 2.24
323.15 K, x1 = 0.203 | 1065.98 | 1129.4 | 3.42
323.15 K, x1 = 0.3026 | 1147.85 | 1133.5 | 4.45
323.15 K, x1 = 0.409 | 1214.91 | 1140 | 5.65
323.15 K, x1 = 0.4987 | 1259.97 | 1145.7 | 7.07
323.15 K, x1 = 0.603 | 1302.8 | 1152.1 | 9.29
323.15 K, x1 = 0.6973 | 1335.11 | 1157.8 | 11.74
323.15 K, x1 = 0.809 | 1367.53 | 1163.8 | 14.53
323.15 K, x1 = 0.9104 | 1392.5 | 1168.4 | 17.32
323.15 K, x1 = 1 | 1411.89 | 1173.5 | 21.11

CCCC[n+]1ccn(C)c1.O=S(=O)([N-]S(=O)(=O)C(F)(F)F)C(F)(F)F + CCCO
Settings | mass density [kg/m3] | speed of sound [m/s] | viscosity [mPa·s]
298.15 K, x1 = 0.1034 | 997.935 | 1181.5 | 3.73
298.15 K, x1 = 0.203 | 1117.34 | 1181.2 | 5.98
298.15 K, x1 = 0.3043 | 1200.89 | 1188.3 | 8.11
298.15 K, x1 = 0.409 | 1263.74 | 1196.8 | 10.82
298.15 K, x1 = 0.5068 | 1308.36 | 1203 | 14.12
298.15 K, x1 = 0.603 | 1343.44 | 1209.4 | 19.03
298.15 K, x1 = 0.6981 | 1371.86 | 1214.5 | 24.41
298.15 K, x1 = 0.809 | 1399.1 | 1219.9 | 31.43
298.15 K, x1 = 0.8925 | 1416.56 | 1223.7 | 39.52
298.15 K, x1 = 1 | 1436.02 | 1227.3 | 51.22
303.15 K, x1 = 0.1034 | 993.513 | 1167.2 | 3.24
303.15 K, x1 = 0.203 | 1112.85 | 1168 | 5.16
303.15 K, x1 = 0.3043 | 1196.18 | 1175.7 | 6.94
303.15 K, x1 = 0.409 | 1259 | 1184.7 | 9.22
303.15 K, x1 = 0.5068 | 1303.62 | 1191.2 | 11.91
303.15 K, x1 = 0.603 | 1338.71 | 1197.8 | 16.24
303.15 K, x1 = 0.6981 | 1367.11 | 1203.2 | 20.52
303.15 K, x1 = 0.809 | 1394.38 | 1208.6 | 26.11
303.15 K, x1 = 0.8925 | 1411.81 | 1212.6 | 32.53
303.15 K, x1 = 1 | 1431.22 | 1216.3 | 41.91
308.15 K, x1 = 0.1034 | 989.047 | 1152.9 | 2.85
308.15 K, x1 = 0.203 | 1108.26 | 1154.8 | 4.5
308.15 K, x1 = 0.3043 | 1191.48 | 1163.1 | 6.01
308.15 K, x1 = 0.409 | 1254.22 | 1172.6 | 7.94
308.15 K, x1 = 0.5068 | 1298.84 | 1179.5 | 10.21
308.15 K, x1 = 0.603 | 1333.94 | 1186.3 | 13.72
308.15 K, x1 = 0.6981 | 1362.35 | 1191.8 | 17.43
308.15 K, x1 = 0.809 | 1389.63 | 1197.5 | 22.13
308.15 K, x1 = 0.8925 | 1407.06 | 1201.6 | 27.21
308.15 K, x1 = 1 | 1426.43 | 1205.5 | 34.63
313.15 K, x1 = 0.1034 | 984.572 | 1138.7 | 2.53
313.15 K, x1 = 0.203 | 1103.58 | 1141.7 | 3.95
313.15 K, x1 = 0.3043 | 1186.72 | 1150.7 | 5.25
313.15 K, x1 = 0.409 | 1249.43 | 1160.6 | 6.9
313.15 K, x1 = 0.5068 | 1294.03 | 1167.8 | 8.85
313.15 K, x1 = 0.603 | 1329.15 | 1175 | 11.93
313.15 K, x1 = 0.6981 | 1357.57 | 1180.7 | 14.94
313.15 K, x1 = 0.809 | 1384.85 | 1186.4 | 18.72
313.15 K, x1 = 0.8925 | 1402.29 | 1190.7 | 22.94
313.15 K, x1 = 1 | 1421.64 | 1194.7 | 28.93
318.15 K, x1 = 0.1034 | 979.997 | 1124.5 | 2.27
318.15 K, x1 = 0.203 | 1098.85 | 1128.7 | 3.69
318.15 K, x1 = 0.3043 | 1181.93 | 1138.3 | 4.84
318.15 K, x1 = 0.409 | 1244.67 | 1148.8 | 6.15
318.15 K, x1 = 0.5068 | 1289.19 | 1156.3 | 7.74
318.15 K, x1 = 0.603 | 1324.35 | 1163.7 | 10.34
318.15 K, x1 = 0.6981 | 1352.76 | 1169.5 | 13.01
318.15 K, x1 = 0.809 | 1380.05 | 1175.5 | 16.35
318.15 K, x1 = 0.8925 | 1397.5 | 1180 | 19.74
318.15 K, x1 = 1 | 1416.84 | 1184 | 24.63
323.15 K, x1 = 0.1034 | 975.381 | 1110.5 | 2.03
323.15 K, x1 = 0.203 | 1094.03 | 1115.8 | 2.98
323.15 K, x1 = 0.3043 | 1177.02 | 1126 | 3.93
323.15 K, x1 = 0.409 | 1239.67 | 1137 | 5.25
323.15 K, x1 = 0.5068 | 1284.24 | 1144.8 | 6.82
323.15 K, x1 = 0.603 | 1319.4 | 1152.6 | 9.13
323.15 K, x1 = 0.6981 | 1347.82 | 1158.6 | 11.42
323.15 K, x1 = 0.809 | 1375.13 | 1164.6 | 14.23
323.15 K, x1 = 0.8925 | 1392.58 | 1169.3 | 17.01
323.15 K, x1 = 1 | 1411.89 | 1173.5 | 21.11
